The values below come from patent publication US9452155B2, “Injectable antibiotic formulations and their methods of use” (BAYER NEW ZEALAND LTD, priority 2012, dated 2016).

Each structure is given as a SMILES string.

The conditions of data set [1]: 20° C.; cited from earlier work.
The format of data set [2] is physicochemical. An excerpt:
Thus the long term stability of PNT with triacetin (or other oily vehicles) is highly unexpected. […] After one month in accelerated stability the components of the composition appeared to degrade rapidly with a resulting colour change from an off-white to a dark yellow with dark brown sludge forming. The degradation components appeared to include a gas, resulting in the container swelling from the resultant pressure. Accordingly, the formulations described in CN 1517090 are not known to be storage stable.

For data set [3] the following is noted: cited from earlier work.

`CC(=O)OCC(COC(C)=O)OC(C)=O` [Triacetin]: in data set [1], the viscosity result was “approximately 23 mPas”. Turning to `CC1(C)S[C@@H]2[C@H](NC(=O)Cc3ccccc3)C(=O)N2[C@H]1C(=O)O` [benzylpenicillin], the “chemical stability on storage in oily vehicles” value in data set [2] is reported as “chemically unstable”. Regarding `CCN(CC)CCOC(=O)[C@@H]1N2C(=O)[C@@H](NC(=O)Cc3ccccc3)[C@H]2SC1(C)C.I` [penethamate hydroiodide], in data set [3] (after injection (Friton 2003)), the “time to peak serum levels (measured as dissociated penicillin G)” value was 3.76 h. Besides, in data set [3] (blood pH (7.2), after intramuscular administration), the “share of the active drug present in its hydrolysed form (benzylpenicillin) at equilibrium” value is 91.8%. For the compound `CC1(C)S[C@@H]2[C@H](NC(=O)Cc3ccccc3)C(=O)N2[C@H]1C(=O)O.CCN(CC)CCOC(=O)c1ccc(N)cc1` [procaine penicillin], in data set [2], the “chemical stability on storage in oily vehicles” value is “chemically unstable” and the “chemical stability when substituted for penethamate in the preferred formulation” value is reported as “chemically unstable”.
